Measurements published in BigSolDB 2.1.

C=C1CC[C@H](O)C/C1=C/C=C1\CCC[C@]2(C)[C@@H]([C@H](C)CCCC(C)C)CC[C@@H]12
solubility (mole fraction)
Details	in DMSO	in ethanol	in ethyl acetate	in ethylene glycol	in isopropanol	in n-butanol	in propylene glycol	in sec-butanol	in transcutol	in water
273.2 K	0.0041	0.136	0.0904	0.000113	0.19	0.151	0.00142	0.154	0.369	1.87e-07
278.2 K	0.00469	0.144	0.109	0.000161	0.202	0.157	0.00176	0.161	0.375	2.9e-07
283.2 K	0.00533	0.153	0.131	0.000234	0.215	0.163	0.00209	0.168	0.382	4.22e-07
288.2 K	0.00601	0.162	0.15	0.000318	0.225	0.169	0.00249	0.176	0.39	5.67e-07
298.2 K	0.00723	0.177	0.195	0.000524	0.245	0.169	0.00337	0.187	0.403	1.03e-06

Details	solubility (mole fraction)
in PEG-400, 273.2 K	0.0135
in PEG-400, 278.2 K	0.0162
in PEG-400, 283.2 K	0.0191
in PEG-400, 288.2 K	0.0222
in PEG-400, 298.2 K	0.0291
